Experimental data: patent publication US8461150B2, “Chalcone linked pyrrolo[2,1-c][1, 4]benzodiazepine hybrids as potential anticancer agents and process for the preparation thereof” (Council of Scientific & Industrial Research, priority 2008, dated 2013)

What was measured:
[1] = system: duplex-form calf thymus DNA (CT-DNA); test: Thermal denaturation studies with calf thymus DNA; assay type: binding; conditions: [PBD]:[DNA] molar ratio 1:5, CT-DNA 100 μM, ligand 20 μM, pH 7.00; for ΔTμ (° C.) after incubation at 37 °C. for 0 h: 0 h incubation; for ΔTμ (° C.) after incubation at 37 °C. for 18 h: 18 h incubation
Description: These compounds have also been subjected to thermal denaturation studies with duplex-form calf thymus DNA (CT-DNA) using an modification of a reported procedure. Working solutions in aqueous buffer (10 mM NaH2PO4/Na2HPO4, 1 mM Na2EDTA, pH 7.00+0.01) containing CT-DNA (100 μm in phosphate) and the PBD (20 μm) have been prepared by addition of concentrated PBD solutions in DMSO to obtain a fixed [PBD]/[DNA] molar ratio of 1:5. The DNA-PBD solutions have been incubated at 37° C. for 0 and 18 h prior to analysis. Samples have been monitored at 260 nm using a Beckman DU-800 spectrophotometer fitted with high performance temperature controller, and heated at 1° C. min^−1 in the 40-110° C. range. DNA helix→coil transition temperatures (Tm) have been obtained from the maxima in the d(A260)/d T derivative plots. Drug-induced alterations in DNA melting behavior are given by: ΔTm=Tm(DNA+PBD)−Tm(DNA alone), where the Tm value for the PBD-free CT-DNA is 68.5±0.01.

Colon cancer cell lines = test: NCI in vitro anticancer screen, SRB assay, 48 h, panel average; assay type: cell-based, human; conditions: average of six to eight cell lines, 48 h exposure
Description: (§1) Biological Activity: The in vitro cell line studies were carried out at the National Cancer Institute, Maryland, USA.
(§2) Cytotoxicity: • The compounds 6b) 7-Methoxy-8-{4-[1-(4-fluorophenyl)-3-(4-hydroxy-3-methoxyphenyl)-2-propen-1-one]butyl}-oxy-(11aS)-1,2,3,11a-5H-pyrrolo[2,1-c][1,4]benzodiazepin-5-one; • (6c) 7-Methoxy-8-{5-[1-(4-fluorophenyl)-3-(4-hydroxy-3-methoxyphenyl)-2-propen-1-one]pentyl}-oxy-(11aS)-1,2,3,11a-5H-pyrrolo[2,1-c][1,4]benzodiazepin-5-one; • (6g) 7-Methoxy-8-{3-[1-(2-hydroxyphenyl)-3-(4-hydroxy-3-methoxyphenyl)-2-propen-1-one]propyl}-oxy-(11aS)-1,2,3,11a-5H-pyrrolo[2,1-c][1,4]benzodiazepin-5-one; • (10a) 7-Methoxy-8-{3-[3-(4-hydroxy-3-methoxyphenyl)-1-(2,4-dimethyl-3-quinolyl)-2-propen-1-one]propyl}-oxy-(11aS)-1,2,3,11a-5H-pyrrolo[2,1-c][1,4]benzodiazepin-5-one • (10b) 7-Methoxy-8-{4-[3-(4-hydroxy-3-methoxyphenyl)-1-(2,4-dimethyl-3-quinolyl)-2-propen-1-one]butyl}-oxy-(11aS)-1,2,3,11a-5H-pyrrolo[2,1-c][1,4]benzodiazepin-5-one; were evaluated for in vitro anticancer activity against […] derived from […] (leukemia, ovarian, renal, melanoma, CNS, colon, prostate, lung, cervix and breast cancer) as shown in (Table 1, 2 and 3)
(§3) 6b, 6c, 6g, 10a and 10b were evaluated for in vitro anticancer activity against sixty human tumour cells derived from nine cancer types (leukemia, non-small-cell lung, colon, CNS, melanoma, ovarian, prostate, renal and breast cancer) as shown in (Table 1 and 2). For the compound, dose response curves for each cell line were measured at a minimum of five concentrations at 10 fold dilutions. A protocol of 48 h continuous drug exposure was used and a sulforhodamine B (SRB) protein assay was used to estimate cell viability or growth. The concentration causing 50% cell growth inhibition (GI50), total cell growth inhibition (TGI 0% growth) and 50% cell death (LC50, −50% growth) compared with the control was calculated.
(§4) Each cancer type represents the average of six to eight different cancer cell lines.

CNS cancer cell lines = test: as above; assay type: cell-based, human; conditions: average of six to eight cell lines, 48 h exposure
Description: as §1, §2, §3, §4

[2] = system: Ovarian cancer cell lines; test: as above; assay type: cell-based, human; conditions: average of six to eight cell lines, 48 h exposure
Description: as §1, §2, §3, §4

[3] = system: Melanoma cancer cell lines; test: as above; assay type: cell-based, human; conditions: average of six to eight cell lines, 48 h exposure
Description: as §1, §2, §3, §4

Breast cancer cell lines = test: as above; assay type: cell-based, human; conditions: average of six to eight cell lines, 48 h exposure
Description: as §1, §2, §3, §4

[4] = system: Leukemia cancer cell lines; test: as above; assay type: cell-based, human; conditions: average of six to eight cell lines, 48 h exposure
Description: as §1, §2, §3, §4

Renal cancer cell lines = test: as above; assay type: cell-based, human; conditions: average of six to eight cell lines, 48 h exposure
Description: as §1, §2, §3, §4

[5] = system: Prostate cancer cell lines; test: as above; assay type: cell-based, human; conditions: average of six to eight cell lines, 48 h exposure
Description: as §1, §2, §3, §4

[6] = system: Non-small cell lung cancer cell lines; test: as above; assay type: cell-based, human; conditions: average of six to eight cell lines, 48 h exposure
Description: as §1, §2, §3, §4

human tumour cell lines = test: In vitro cytotoxicity, mean graph midpoints (MG_MID) over human tumour cell lines; assay type: cell-based; conditions: human tumour cell lines, 48 h exposure, SRB
Description: as §1, §3

M14 (Melanoma) = test: Cytotoxicity in selected cancer cell lines (SRB, 48 h); assay type: cell-based, human
Description: as §1, §3
(§5) Each cancer type represents the average of six to nine different cancer cell lines. In vitro evaluation of cytotoxic activity. The compound 6b, 6c, 6g 10a and 10b were evaluated for in vitro anticancer activity against nine human tumour cells derived from six cancer types (leukemia, colon, prostate, melanoma, ovarian, lung, cervix and breast cancer) as shown in Table 3. […] Compounds 6b, 6c, 6g, 10a and 10b have been evaluated for their in vitro cytotoxicity in selected human cancer cell lines of colon (Colo205), lung (NCI-H522, NCI-H226), colon (colo-205), prostate (DU145, PC3), ovarian (IGROV1, HT1080), and breast (MDA-MB-435, Zr-75-1), melanoma (LOXMIVI, VACC-62, SK-MEL-5) origin. A protocol of 48 h continuous drug exposure has been used and an […] has been used to estimate cell viability or growth. The results are expressed as percent of cell growth determined relative to that of untreated control cells

OVCAR-3 (Ovarian) = test: as above; assay type: cell-based, human
Description: as §1, §3, §5

SF-539 (CNS) = test: as above; assay type: cell-based, human
Description: as §1, §3, §5

U251 (CNS) = test: as above; assay type: cell-based, human
Description: as §1, §3, §5

ACHN (Renal) = test: as above; assay type: cell-based, human
Description: as §1, §3, §5

786-0 (Renal) = test: as above; assay type: cell-based, human
Description: as §1, §3, §5

HCT-116 (Colon) = test: as above; assay type: cell-based, human
Description: as §1, §3, §5

MALME-3M (Melanoma) = test: as above; assay type: cell-based, human
Description: as §1, §3, §5

HCT-15 (Colon) = test: as above; assay type: cell-based, human
Description: as §1, §3, §5

MDA-MB-231/ATCC (Breast) = test: as above; assay type: cell-based, human
Description: as §1, §3, §5

UO-31 (Renal) = test: as above; assay type: cell-based, human
Description: as §1, §3, §5

SW-620 (Colon) = test: as above; assay type: cell-based, human
Description: as §1, §3, §5

UACC-257 (Melanoma) = test: as above; assay type: cell-based, human
Description: as §1, §3, §5

HL-60(TB) (Leukemia) = test: as above; assay type: cell-based, human
Description: as §1, §3, §5

[7] = system: NCI-H522 (Non-small cell lung); test: as above; assay type: cell-based, human
Description: as §1, §3, §5

UACC-62 (Melanoma) = test: as above; assay type: cell-based, human
Description: as §1, §3, §5

TK-10 (Renal) = test: as above; assay type: cell-based, human
Description: as §1, §3, §5

[8] = system: NCI-H226 (Non-small cell lung); test: as above; assay type: cell-based, human
Description: as §1, §3, §5

A498 (Renal) = test: as above; assay type: cell-based, human
Description: as §1, §3, §5

LOX IMVI (Melanoma) = test: as above; assay type: cell-based, human
Description: as §1, §3, §5

NCI/ADR-RES (Breast) = test: as above; assay type: cell-based, human
Description: as §1, §3, §5

RPMI-8226 (Leukemia) = test: as above; assay type: cell-based, human
Description: as §1, §3, §5

CAKI-1 (Renal) = test: as above; assay type: cell-based, human
Description: as §1, §3, §5

[9] = system: NCI-H23 (Non-small cell lung); test: as above; assay type: cell-based, human
Description: as §1, §3, §5

SK-MEL-5 (Melanoma) = test: as above; assay type: cell-based, human
Description: as §1, §3, §5

CCRF-CEM (Leukemia) = test: as above; assay type: cell-based, human
Description: as §1, §3, §5

COc1cc(C=CC(=O)c2ccc(F)cc2)ccc1OCCCOc1cc2c(cc1OC)C(=O)N1CCC[C@H]1C=N2 [6a, 7-Methoxy-8-{3-[1-(4-fluorophenyl)-3-(4-hydroxy-3-methoxyphenyl)-2-propen-1-one]propyl}-oxy-(11aS)-1,2,3,11a-5H-pyrrolo[2,1-c][1,4]benzodiazepin-5-one]
ΔTμ (° C.) after incubation at 37 °C. for 0 h [1]: 1.7 °C | ΔTμ (° C.) after incubation at 37 °C. for 18 h [1]: 2.4 °C

COc1cc(C=CC(=O)c2ccccc2O)ccc1OCCCOc1cc2c(cc1OC)C(=O)N1CCC[C@H]1C=N2 [6d, 7-Methoxy-8-{3-[1-(2-hydroxyphenyl)-3-(4-hydroxy-3-methoxyphenyl)-2-propen-1-one]propyl}-oxy-(11aS)-1,2,3,11a-5H-pyrrolo[2,1-c][1,4]benzodiazepin-5-one]
ΔTμ (° C.) after incubation at 37 °C. for 0 h [1]: 2.1 °C | ΔTμ (° C.) after incubation at 37 °C. for 18 h [1]: 2.6 °C

COc1cc(/C=C/C(=O)c2ccc(O)cc2)ccc1OCCCOc1cc2c(cc1OC)C(=O)N1CCC[C@H]1C=N2 [6g, 7-Methoxy-8-{3-[1-(4-hydroxyphenyl)-3-(4-hydroxy-3-methoxyphenyl)-2-propen-1-one]propyl}-oxy-(11aS)-1,2,3,11a-5H-pyrrolo[2,1-c][1,4]benzodiazepin-5-one]
Log GI50 (concentration in mol/L causing 50% growth inhibition) (Colon cancer cell lines): −5.85 mol/L | Log GI50 (concentration in mol/L causing 50% growth inhibition) (CNS cancer cell lines): −5.62 mol/L | Log GI50 (concentration in mol/L causing 50% growth inhibition) [2]: −5.56 mol/L | Log GI50 (concentration in mol/L causing 50% growth inhibition) [3]: −5.65 mol/L | Log GI50 (concentration in mol/L causing 50% growth inhibition) (Breast cancer cell lines): −6.57 mol/L | Log GI50 (concentration in mol/L causing 50% growth inhibition) [4]: −5.62 mol/L | Log GI50 (concentration in mol/L causing 50% growth inhibition) (Renal cancer cell lines): −5.67 mol/L | Log GI50 (concentration in mol/L causing 50% growth inhibition) [5]: −4.63 mol/L | Log GI50 (concentration in mol/L causing 50% growth inhibition) [6]: −5.82 mol/L | Log10LC50 mean graph midpoint (MG_MID) (human tumour cell lines; 50% cell death): −4.58 | Log10GI50 mean graph midpoint (MG_MID) (human tumour cell lines): −5.78 | Log10TGI mean graph midpoint (MG_MID) (human tumour cell lines; total cell growth inhibition): −5.86 | GI50 (M14 (Melanoma)): 18.8 µM | GI50 (OVCAR-3 (Ovarian)): 46.3 µM | GI50 (SF-539 (CNS)): 33.7 µM | GI50 (U251 (CNS)): 19.8 µM | GI50 (ACHN (Renal)): 46.1 µM | GI50 (786-0 (Renal)): 24.9 µM | GI50 (HCT-116 (Colon)): 14.6 µM | GI50 (MALME-3M (Melanoma)): 36.2 µM | GI50 (HCT-15 (Colon)): 18.4 µM | GI50 (MDA-MB-231/ATCC (Breast)): 14.2 µM | GI50 (UO-31 (Renal)): 45.2 µM | GI50 (SW-620 (Colon)): 26.9 µM | GI50 (UACC-257 (Melanoma)): 15.9 µM | GI50 (HL-60(TB) (Leukemia)): 49.5 µM | GI50 [7]: 18.3 µM | GI50 (UACC-62 (Melanoma)): 22.5 µM | GI50 (TK-10 (Renal)): 31.4 µM | GI50 [8]: 28.4 µM | GI50 (A498 (Renal)): 29 µM | GI50 (LOX IMVI (Melanoma)): 15 µM | GI50 (NCI/ADR-RES (Breast)): 28.7 µM | GI50 (RPMI-8226 (Leukemia)): 46.8 µM | GI50 (CAKI-1 (Renal)): 22.9 µM | GI50 [9]: 22.5 µM | GI50 (SK-MEL-5 (Melanoma)): 23.3 µM | GI50 (CCRF-CEM (Leukemia)): 37.4 µM

COc1cc(C=CC(=O)c2c(C)nc3ccccc3c2C)ccc1OCCCCCOc1cc2c(cc1OC)C(=O)N1CCC[C@H]1C=N2 [10c, 7-Methoxy-8-{5-[3-(4-hydroxy-3-methoxyphenyl)-1-(2,4-dimethyl-3-quinolyl)-2-propen-1-one]pentyl}-oxy-(11aS)-1,2,3,11a-5H-pyrrolo[2,1-c][1,4]benzodiazepin-5-one]
ΔTμ (° C.) after incubation at 37 °C. for 0 h [1]: 4.7 °C | ΔTμ (° C.) after incubation at 37 °C. for 18 h [1]: 5.1 °C

COc1cc(C=CC(=O)c2c(C)nc3ccccc3c2C)ccc1OCCCCCCOc1cc2c(cc1OC)C(=O)N1CCC[C@H]1C=N2 [10d, 7-Methoxy-8-{6-[3-(4-hydroxy-3-methoxyphenyl)-1-(2,4-dimethyl-3-quinolyl)-2-propen-1-one]hexyl}-oxy-(11aS)-1,2,3,11a-5H-pyrrolo[2,1-c][1,4]benzodiazepin-5-one]
ΔTμ (° C.) after incubation at 37 °C. for 0 h [1]: 4.9 °C | ΔTμ (° C.) after incubation at 37 °C. for 18 h [1]: 5.3 °C

COc1cc2c(cc1O)N=CC1CCCN1C2=O (stereo not drawn) [DC-81, reference compound]
ΔTμ (° C.) after incubation at 37 °C. for 0 h [1]: 0.3 °C | ΔTμ (° C.) after incubation at 37 °C. for 18 h [1]: 0.7 °C
